This note sets out measurements from the kinase profiling compilation of Christmann-Franck et al. (2016).

The target in assay [1] is TTK (human) (UniProt P33981). Kind of assay: SelectScreen, TR FRET. (In general: In TR-FRET formats the signal depends on donor and acceptor labels being close together.)
Assay [2] addresses TTK (human) (UniProt P33981). Kind of assay: KINOMEscan competition binding.
The target in assay [3] is PLK1 (human) (UniProt P53350). Put plainly: KINOMEscan competition binding. To be noted: compound 10.0 µM.
Assay [4] deals with GAK (human) (UniProt O14976). Kind of assay: KINOMEscan competition binding. To be noted: compound 10.0 µM.
GAK (human), sequence (O14976 whole entry, looked up): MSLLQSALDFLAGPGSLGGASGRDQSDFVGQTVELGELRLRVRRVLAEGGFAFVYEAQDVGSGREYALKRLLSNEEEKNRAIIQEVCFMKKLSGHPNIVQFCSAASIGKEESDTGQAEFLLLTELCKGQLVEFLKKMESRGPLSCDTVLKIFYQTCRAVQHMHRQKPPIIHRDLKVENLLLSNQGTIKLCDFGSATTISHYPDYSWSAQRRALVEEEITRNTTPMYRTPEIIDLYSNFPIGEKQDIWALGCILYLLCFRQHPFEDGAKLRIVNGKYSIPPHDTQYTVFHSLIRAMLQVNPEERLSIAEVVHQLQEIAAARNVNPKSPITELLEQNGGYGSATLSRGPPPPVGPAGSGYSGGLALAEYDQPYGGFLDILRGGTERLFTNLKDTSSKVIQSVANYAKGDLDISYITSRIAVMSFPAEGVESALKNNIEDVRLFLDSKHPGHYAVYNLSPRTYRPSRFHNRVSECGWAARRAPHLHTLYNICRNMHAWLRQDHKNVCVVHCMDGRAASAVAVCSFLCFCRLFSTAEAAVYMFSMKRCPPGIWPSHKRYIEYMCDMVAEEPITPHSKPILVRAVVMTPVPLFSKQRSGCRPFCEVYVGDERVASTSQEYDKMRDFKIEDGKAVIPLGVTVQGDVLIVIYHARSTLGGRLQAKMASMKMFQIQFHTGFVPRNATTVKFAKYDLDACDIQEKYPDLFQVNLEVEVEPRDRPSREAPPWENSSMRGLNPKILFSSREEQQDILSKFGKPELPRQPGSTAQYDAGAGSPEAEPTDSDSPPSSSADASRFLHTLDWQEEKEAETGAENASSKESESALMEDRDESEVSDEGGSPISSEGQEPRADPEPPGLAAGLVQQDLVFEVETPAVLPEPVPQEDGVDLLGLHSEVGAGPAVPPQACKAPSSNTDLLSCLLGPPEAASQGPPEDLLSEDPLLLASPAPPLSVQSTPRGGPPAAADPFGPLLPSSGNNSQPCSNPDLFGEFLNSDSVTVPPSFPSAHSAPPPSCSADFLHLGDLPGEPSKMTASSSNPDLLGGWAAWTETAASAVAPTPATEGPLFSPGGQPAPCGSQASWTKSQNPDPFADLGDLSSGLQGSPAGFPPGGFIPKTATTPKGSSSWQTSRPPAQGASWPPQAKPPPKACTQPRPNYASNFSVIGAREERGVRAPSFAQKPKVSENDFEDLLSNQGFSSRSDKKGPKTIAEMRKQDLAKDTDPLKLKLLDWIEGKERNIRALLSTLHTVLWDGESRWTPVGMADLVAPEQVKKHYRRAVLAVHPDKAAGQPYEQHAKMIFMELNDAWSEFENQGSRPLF
The target in assay [5] is EPHA8 (human) (UniProt P29322). Kind of assay: KINOMEscan competition binding. To be noted: compound 10.0 µM.
Assay [6] concerns the target PIM2 (human) (UniProt Q9P1W9). Kind of assay: SelectScreen, TR FRET.
Assay [7] concerns the target PIM1 (human) (UniProt P11309). Kind of assay: SelectScreen, TR FRET.
Assay [8] deals with STK10 (human) (UniProt O94804). Kind of assay: KINOMEscan competition binding. To be noted: compound 10.0 µM.
Assay [9] deals with CSNK2A1 (human) (UniProt P68400). Kind of assay: KINOMEscan competition binding. Conditions: compound 10.0 µM.
Assay [10] deals with STK17B (human) (UniProt O94768). Kind of assay: KINOMEscan competition binding. To be noted: compound 10.0 µM.
STK17B (human), sequence (O94768 whole entry, looked up): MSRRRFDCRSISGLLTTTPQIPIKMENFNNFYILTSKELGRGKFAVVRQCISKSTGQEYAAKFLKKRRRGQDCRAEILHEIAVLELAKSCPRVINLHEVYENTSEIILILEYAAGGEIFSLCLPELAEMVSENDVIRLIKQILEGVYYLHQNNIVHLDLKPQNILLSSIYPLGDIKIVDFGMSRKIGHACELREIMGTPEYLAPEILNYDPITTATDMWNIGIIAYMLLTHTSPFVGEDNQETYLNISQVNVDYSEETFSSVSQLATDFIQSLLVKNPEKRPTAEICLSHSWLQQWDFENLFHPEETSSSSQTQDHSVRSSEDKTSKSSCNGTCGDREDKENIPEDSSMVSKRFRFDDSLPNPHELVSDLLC
Assay [11] has as its target RPS6KA2 KD2 (human) (UniProt Q15349). Kind of assay: KINOMEscan competition binding. To be noted: compound 10.0 µM.
Assay [12] concerns the target PIM2 (human) (UniProt Q9P1W9). Put plainly: KINOMEscan competition binding. Conditions: compound 10.0 µM.
Assay [13] has as its target RPS6KA6 KD2 (human) (UniProt Q9UK32). Put plainly: KINOMEscan competition binding. To be noted: compound 10.0 µM.
Assay [14] deals with TIE1 (human) (UniProt P35590). Kind of assay: KINOMEscan competition binding. Conditions: compound 10.0 µM.
The target of assay [15] is DDR1 (human) (UniProt Q08345). Kind of assay: KINOMEscan competition binding. To be noted: compound 10.0 µM.
For assay [16], the target named is TLK1 (human) (UniProt Q9UKI8). Kind of assay: KINOMEscan competition binding. Conditions: compound 10.0 µM.
Assay [17] addresses STK17A (human) (UniProt Q9UEE5). Put plainly: KINOMEscan competition binding. To be noted: compound 10.0 µM.
In assay [18] the target is PLK4 (human) (UniProt O00444). Put plainly: KINOMEscan competition binding. To be noted: compound 10.0 µM.
Assay [19] deals with PDGFRA (human) (UniProt P16234). Put plainly: KINOMEscan competition binding. Conditions: compound 10.0 µM.
In assay [20] the target is DAPK1 (human) (UniProt P53355). Put plainly: KINOMEscan competition binding. Conditions: compound 10.0 µM.
Assay [21] addresses SLK (human) (UniProt Q9H2G2). Put plainly: KINOMEscan competition binding. To be noted: compound 10.0 µM.
The target of assay [22] is FLT1 (human) (UniProt P17948). Put plainly: KINOMEscan competition binding. Conditions: compound 10.0 µM.
In assay [23] the target is RPS6KA1 KD2 (human) (UniProt Q15418). Kind of assay: KINOMEscan competition binding. Conditions: compound 10.0 µM.
RPS6KA1 KD2 (human), sequence (Q15418 whole entry, looked up): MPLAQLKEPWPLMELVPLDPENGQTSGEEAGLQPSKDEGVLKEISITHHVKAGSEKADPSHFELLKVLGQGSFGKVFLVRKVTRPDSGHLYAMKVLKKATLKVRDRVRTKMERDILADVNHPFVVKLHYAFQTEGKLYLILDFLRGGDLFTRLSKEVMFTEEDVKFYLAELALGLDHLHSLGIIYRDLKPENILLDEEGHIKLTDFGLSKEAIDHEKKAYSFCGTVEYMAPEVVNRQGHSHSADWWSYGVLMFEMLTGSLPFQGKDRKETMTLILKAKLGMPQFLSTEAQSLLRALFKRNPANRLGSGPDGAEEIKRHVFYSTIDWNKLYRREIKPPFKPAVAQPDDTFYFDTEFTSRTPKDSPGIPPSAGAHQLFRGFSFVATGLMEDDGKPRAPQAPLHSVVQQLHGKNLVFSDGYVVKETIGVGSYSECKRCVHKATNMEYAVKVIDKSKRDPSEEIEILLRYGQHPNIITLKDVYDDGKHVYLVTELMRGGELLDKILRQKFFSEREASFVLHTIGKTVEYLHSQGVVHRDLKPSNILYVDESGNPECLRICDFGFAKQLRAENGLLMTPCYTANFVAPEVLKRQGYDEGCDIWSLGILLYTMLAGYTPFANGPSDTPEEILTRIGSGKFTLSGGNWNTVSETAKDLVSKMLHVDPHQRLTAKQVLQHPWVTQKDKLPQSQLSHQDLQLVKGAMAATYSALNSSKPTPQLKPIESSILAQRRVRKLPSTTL
The target in assay [24] is KDR (human) (UniProt P35968). Put plainly: KINOMEscan competition binding. Conditions: compound 10.0 µM.
The target in assay [25] is MARK3 (human) (UniProt P27448). Kind of assay: KINOMEscan competition binding. To be noted: compound 10.0 µM.
Assay [26] concerns the target CDK11A (human) (UniProt Q9UQ88). Put plainly: KINOMEscan competition binding. To be noted: compound 10.0 µM.
For assay [27], the target named is HIPK1 (human) (UniProt Q86Z02). Put plainly: KINOMEscan competition binding. Conditions: compound 10.0 µM.
For assay [28], the target named is PDGFRB (human) (UniProt P09619). Kind of assay: KINOMEscan competition binding. To be noted: compound 10.0 µM.
PDGFRB (human), sequence (P09619 whole entry, looked up): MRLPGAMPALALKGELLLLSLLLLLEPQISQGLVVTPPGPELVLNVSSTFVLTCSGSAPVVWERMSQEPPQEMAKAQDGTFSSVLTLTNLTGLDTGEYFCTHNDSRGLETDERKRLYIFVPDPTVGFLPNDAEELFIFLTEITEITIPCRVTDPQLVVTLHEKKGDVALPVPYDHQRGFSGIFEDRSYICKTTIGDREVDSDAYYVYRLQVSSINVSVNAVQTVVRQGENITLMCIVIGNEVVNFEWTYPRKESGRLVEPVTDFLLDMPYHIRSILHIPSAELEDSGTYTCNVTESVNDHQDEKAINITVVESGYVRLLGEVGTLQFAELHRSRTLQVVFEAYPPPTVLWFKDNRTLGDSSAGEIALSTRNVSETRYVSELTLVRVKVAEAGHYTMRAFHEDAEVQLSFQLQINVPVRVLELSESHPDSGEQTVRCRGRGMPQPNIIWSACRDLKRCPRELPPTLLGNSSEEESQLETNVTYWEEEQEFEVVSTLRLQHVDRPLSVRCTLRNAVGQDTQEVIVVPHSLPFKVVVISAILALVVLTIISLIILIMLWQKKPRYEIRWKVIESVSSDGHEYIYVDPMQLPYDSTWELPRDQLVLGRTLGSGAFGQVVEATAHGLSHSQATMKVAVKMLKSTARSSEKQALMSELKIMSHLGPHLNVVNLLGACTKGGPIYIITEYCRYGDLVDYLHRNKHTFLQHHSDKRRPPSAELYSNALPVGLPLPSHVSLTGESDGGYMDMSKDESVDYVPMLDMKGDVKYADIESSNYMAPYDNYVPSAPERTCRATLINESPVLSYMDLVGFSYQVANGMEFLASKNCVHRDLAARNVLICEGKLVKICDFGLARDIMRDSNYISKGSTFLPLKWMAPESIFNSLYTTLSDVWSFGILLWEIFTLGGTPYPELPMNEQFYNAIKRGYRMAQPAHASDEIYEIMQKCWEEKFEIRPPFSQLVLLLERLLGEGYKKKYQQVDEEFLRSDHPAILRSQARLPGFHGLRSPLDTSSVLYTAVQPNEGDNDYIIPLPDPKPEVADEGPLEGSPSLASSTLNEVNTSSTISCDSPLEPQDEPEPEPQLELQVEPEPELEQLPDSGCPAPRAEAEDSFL
Assay [29] has as its target PHKG1 (human) (UniProt Q16816). Kind of assay: KINOMEscan competition binding. Conditions: compound 10.0 µM.
The target in assay [30] is CDC2L2 (human) (UniProt Q9UQ88). Put plainly: KINOMEscan competition binding. To be noted: compound 10.0 µM.
The test system of assay [31] is RET (human), P07949 [M918T]. Kind of assay: KINOMEscan competition binding. Conditions: compound 10.0 µM.
Assay [32] concerns the target PIM1 (human) (UniProt P11309). Kind of assay: KINOMEscan competition binding. To be noted: compound 10.0 µM.
The target in assay [33] is FLT4 (human) (UniProt P35916). Kind of assay: KINOMEscan competition binding. To be noted: compound 10.0 µM.
For assay [34], the system named is KIT (human), P10721 [V559D]. Kind of assay: KINOMEscan competition binding. Conditions: compound 10.0 µM.
The target of assay [35] is CDK11B (human) (UniProt P21127). Put plainly: KINOMEscan competition binding. To be noted: compound 10.0 µM.
The target of assay [36] is RET (human) (UniProt P07949). Kind of assay: KINOMEscan competition binding. To be noted: compound 10.0 µM.
In assay [37] the target is PIM3 (human) (UniProt Q86V86). Kind of assay: KINOMEscan competition binding. To be noted: compound 10.0 µM.
Assay [38] concerns KIT (human), P10721 [V559D/T670I]. Kind of assay: KINOMEscan competition binding. To be noted: compound 10.0 µM.
Assay [39] deals with KIT (human) (UniProt P10721). Kind of assay: KINOMEscan competition binding. Conditions: compound 10.0 µM.
The target in assay [40] is STK24 (human) (UniProt Q9Y6E0). Kind of assay: KINOMEscan competition binding. Conditions: compound 10.0 µM.
The target in assay [41] is CSNK2A2 (human) (UniProt P19784). Put plainly: KINOMEscan competition binding. Conditions: compound 10.0 µM.
In assay [42] the target is DDR2 (human) (UniProt Q16832). Put plainly: KINOMEscan competition binding. To be noted: compound 10.0 µM.
Assay [43] addresses MAPK8 (human) (UniProt P45983). Put plainly: KINOMEscan competition binding. Conditions: compound 10.0 µM.

The IC50 is the concentration at which inhibition is half-maximal. One may read the Kd as the concentration at which binding is half-saturated.

TTK (human), sequence (P33981 whole entry, looked up): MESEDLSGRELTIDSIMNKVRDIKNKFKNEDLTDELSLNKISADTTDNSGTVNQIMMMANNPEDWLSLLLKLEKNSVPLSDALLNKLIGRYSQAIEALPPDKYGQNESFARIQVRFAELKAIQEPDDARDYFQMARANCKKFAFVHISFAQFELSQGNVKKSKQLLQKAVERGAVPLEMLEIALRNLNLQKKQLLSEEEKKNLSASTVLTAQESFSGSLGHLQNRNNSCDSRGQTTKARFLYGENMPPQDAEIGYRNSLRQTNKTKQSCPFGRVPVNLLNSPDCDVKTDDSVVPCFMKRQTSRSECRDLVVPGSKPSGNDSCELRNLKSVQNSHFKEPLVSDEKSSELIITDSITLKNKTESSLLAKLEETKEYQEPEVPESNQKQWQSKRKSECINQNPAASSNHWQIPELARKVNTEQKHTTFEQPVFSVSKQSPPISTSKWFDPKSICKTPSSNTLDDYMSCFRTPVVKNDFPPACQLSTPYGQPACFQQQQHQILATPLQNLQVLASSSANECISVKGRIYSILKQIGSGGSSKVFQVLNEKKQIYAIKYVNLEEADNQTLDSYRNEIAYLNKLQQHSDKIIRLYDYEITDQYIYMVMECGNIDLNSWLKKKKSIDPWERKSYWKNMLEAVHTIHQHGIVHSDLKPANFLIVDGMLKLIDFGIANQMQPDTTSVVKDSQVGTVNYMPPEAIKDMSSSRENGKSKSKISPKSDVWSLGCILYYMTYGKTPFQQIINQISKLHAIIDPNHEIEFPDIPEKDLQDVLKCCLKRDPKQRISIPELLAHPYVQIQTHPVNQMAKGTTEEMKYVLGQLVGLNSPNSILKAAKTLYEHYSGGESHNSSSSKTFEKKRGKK
PIM1 (human), sequence (P11309 whole entry, looked up): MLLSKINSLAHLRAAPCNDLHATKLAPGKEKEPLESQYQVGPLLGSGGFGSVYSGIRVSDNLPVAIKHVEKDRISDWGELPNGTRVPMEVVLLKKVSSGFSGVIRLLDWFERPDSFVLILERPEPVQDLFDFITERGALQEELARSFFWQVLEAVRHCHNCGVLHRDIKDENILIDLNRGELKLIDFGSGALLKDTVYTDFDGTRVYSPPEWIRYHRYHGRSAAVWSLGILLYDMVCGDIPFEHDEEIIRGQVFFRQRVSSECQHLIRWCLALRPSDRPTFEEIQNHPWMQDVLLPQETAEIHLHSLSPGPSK
PIM2 (human), sequence (Q9P1W9 whole entry, looked up): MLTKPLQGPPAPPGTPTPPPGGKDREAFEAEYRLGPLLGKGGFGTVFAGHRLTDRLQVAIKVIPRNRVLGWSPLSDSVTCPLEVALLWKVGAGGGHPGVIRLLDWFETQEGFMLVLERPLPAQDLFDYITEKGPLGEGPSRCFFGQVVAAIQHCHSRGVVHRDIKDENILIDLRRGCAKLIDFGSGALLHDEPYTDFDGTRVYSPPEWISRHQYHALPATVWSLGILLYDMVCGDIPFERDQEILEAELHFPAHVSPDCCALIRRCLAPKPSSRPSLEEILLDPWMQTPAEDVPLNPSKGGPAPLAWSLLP

Consider `CC(C)Oc1cc(N2CCC(O)CC2)ccc1Nc1ncc2c(n1)N(C1CCCC1)CCC(=O)N2C`, for which the IC50 in assay [1] was 605 nM. Moreover, the equilibrium dissociation constant (Kd) in assay [2] came out at 113 nM. For the same molecule, the kinase still bound, per cent of control in assay [2] (compound 10.0 µM) was 2.4%; in [3], 14%; in assay [4], 29%; in [5], 0%.
Take `CCN1CCN(Cc2cc(NC(=O)c3cccc4cc(-c5ccc(/C=C6\SC(=O)NC6=O)o5)ccc34)cc(C(F)(F)F)c2)CC1`: the concentration for half-maximal inhibition (IC50) is 814 nM in [6] and 774 nM in [7]. For the same molecule, the kinase still bound, per cent of control in assay [8] was determined as 0.15%; in [9], 4.6%; in assay [10], 0.3%; in assay [11], 29%; in assay [12] it was 0.4%; in assay [13] it was 20%. The kinase still bound, per cent of control turned out to be 5.8% in assay [14]; 0.15% in [15]; 13% in assay [16]; 15% in [17]; 33% in [18]; 0.55% in assay [19]. Further, the kinase still bound, per cent of control in assay [20] stood at 34%; in assay [21] it was 30%; in [22], 12%; in [23], 18%; in assay [24], 9%; in [25] it was 32%. In addition, the kinase still bound, per cent of control is 24% in assay [26]; 5.4% in assay [27]; 0.25% in [28]; 0% in [29]; 18% in assay [30]; 3.9% in assay [31]. For the same molecule, the kinase still bound, per cent of control was 11% in [32]; 5.9% in assay [33]; 1.2% in assay [34]; 30% in assay [35]; 4.6% in [36]; 7% in assay [37]. The kinase still bound, per cent of control was found to be 2.4% in assay [38]; 2.6% in assay [39]; 25% in assay [40]; 6.4% in [41]; 7.6% in assay [42]; 32% in assay [43].
